In the supplement of paper PMC10307832:

How the values were obtained:
Assay in all cases: relative viability (nuclei count vs DMSO), 5 days (fraction); higher = more cells survive
[1] = compound: C1CN(CCC1C(C2=CC3=C(C=C2)OCO3)(C4=CC5=C(C=C4)OCO5)O)C(=O)OC6=CC=C(C=C6)[N+](=O)[O-] [JZL-184] + CC(C)C[C@H](NC(=O)[C@H](Cc1ccccc1)NC(=O)c1cnccn1)B(O)O [Bortezomib] (partner 0.002 µM)
Summary of the method: (§1)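 Five library-drug doses in √10 steps were combined with a fixed anchor-drug dose, or a single drug was given alone, by pin tool to lung cancer cell lines in 1536-well plates the day after seeding. Nuclei were stained and counted after 5 days. Relative viability is the nuclei count in treated wells over that in vehicle wells, taken as the median of duplicate plates.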

[2] = compound: C1CN(CCC1C(C2=CC3=C(C=C2)OCO3)(C4=CC5=C(C=C4)OCO5)O)C(=O)OC6=CC=C(C=C6)[N+](=O)[O-] [JZL-184] + C[C@@H](Oc1cc(-c2cnn(C3CCNCC3)c2)cnc1N)c1c(Cl)ccc(F)c1Cl [Crizotinib] (partner 1 µM)
Summary of the method: as §1

[3] = compound: C1CN(CCC1C(C2=CC3=C(C=C2)OCO3)(C4=CC5=C(C=C4)OCO5)O)C(=O)OC6=CC=C(C=C6)[N+](=O)[O-] [JZL-184] + C[C@]1(O)C[C@@H](c2nc(-c3ccc4ccc(-c5ccccc5)nc4c3)c3c(N)nccn32)C1 [Linsitinib] (partner 1 µM)
Summary of the method: as §1

[4] = compound: C1CN(CCC1C(C2=CC3=C(C=C2)OCO3)(C4=CC5=C(C=C4)OCO5)O)C(=O)OC6=CC=C(C=C6)[N+](=O)[O-] [JZL-184] + Cc1nc(NC(=O)N2CCC[C@H]2C(N)=O)sc1-c1ccnc(C(C)(C)C(F)(F)F)c1 [Alpelisib] (partner 2 µM)
Summary of the method: as §1

[5] = compound: C1CN(CCC1C(C2=CC3=C(C=C2)OCO3)(C4=CC5=C(C=C4)OCO5)O)C(=O)OC6=CC=C(C=C6)[N+](=O)[O-] [JZL-184] + CS(=O)(=O)N1CCN(Cc2cc3nc(-c4cccc5[nH]ncc45)nc(N4CCOCC4)c3s2)CC1 [Pictilisib] (partner 1 µM)
Summary of the method: as §1

| Cell Line | relative viability ([1]; first compound 0.04 µM) | relative viability ([1]; first compound 0.4 µM) | relative viability ([1]; first compound 1.265 µM) | relative viability ([1]; first compound 4 µM) | relative viability ([2]; first compound 0.04 µM) | relative viability ([2]; first compound 0.4 µM) | relative viability ([2]; first compound 1.265 µM) | relative viability ([2]; first compound 4 µM) | relative viability ([3]; first compound 0.04 µM) | relative viability ([3]; first compound 0.4 µM) | relative viability ([3]; first compound 1.265 µM) | relative viability ([3]; first compound 4 µM) | relative viability ([4]; first compound 0.04 µM) | relative viability ([4]; first compound 0.4 µM) | relative viability ([4]; first compound 1.265 µM) | relative viability ([4]; first compound 4 µM) | relative viability ([5]; first compound 0.04 µM) | relative viability ([5]; first compound 0.4 µM) | relative viability ([5]; first compound 1.265 µM) | relative viability ([5]; first compound 4 µM) |
| --- | --- | --- | --- | --- | --- | --- | --- | --- | --- | --- | --- | --- | --- | --- | --- | --- | --- | --- | --- | --- |
| HCC-44 | 0.8 | 0.878 | 0.836 | 0.856 | 0.815 | 0.78 | 0.815 | 0.783 | 0.619 | 0.631 | 0.728 | 0.636 | 0.671 | 0.8 | 0.749 | 0.74 | 0.592 | 0.549 | 0.622 | 0.528 |
| HCC-78 | 0.384 | 0.521 | 0.667 | 0.516 | 0.34 | 0.317 | 0.359 | 0.341 | 0.355 | 0.513 | 0.535 | 0.474 | 0.325 | 0.317 | 0.375 | 0.315 | 0.204 | 0.188 | 0.248 | 0.2 |
| HCC-366 | 1.26 | 1.01 | 1.09 | 0.978 | 0.827 | 0.443 | 0.526 | 0.5 | 0.643 | 0.49 | 0.675 | 0.63 | 0.355 | 0.436 | 0.506 | 0.358 | 0.158 | 0.179 | 0.155 | 0.113 |
| HCC-827 | 1.11 | 0.911 | 1.07 | 1.02 | 0.918 | 0.888 | 0.977 | 0.854 | 0.988 | 0.976 | 0.949 | 0.89 | 0.724 | 0.927 | 0.981 | 0.952 | 0.915 | 0.908 | 1.01 | 1.06 |
| HOP-62 | 1.09 | 0.862 | 0.809 | 0.856 | 1.01 | 0.905 | 1.05 | 0.839 | 1.09 | 1.13 | 0.992 | 0.784 | 1.13 | 1.05 | 1.05 | 0.96 | 0.69 | 0.822 | 0.901 | 0.94 |
| IA-LM | 1.04 | 0.786 | 0.844 | 0.866 | 0.988 | 0.467 | 0.74 | 0.9 | 1.06 | 0.529 | 0.607 | 0.554 | 0.991 | 0.526 | 0.886 | 0.744 | 0.456 | 0.361 | 0.376 | 0.312 |
| LC-2-ad | 1.16 | 0.868 | 0.99 | 0.942 | 0.695 | 0.454 | 0.481 | 0.42 | 0.857 | 0.698 | 0.839 | 0.829 | 0.858 | 0.822 | 0.95 | 0.839 | 0.546 | 0.388 | 0.658 | 0.461 |
| LCLC-97TM1 | 0.612 | 0.624 | 0.804 | 0.573 | 0.574 | – | 0.505 | 0.271 | 0.183 | – | 0.208 | 0.198 | 0.242 | – | 0.252 | 0.295 | 0.259 | – | 0.237 | 0.201 |
| LCLC-103H | 0.992 | 1.08 | 0.985 | 1.02 | 1.02 | 0.959 | 1.02 | 1 | 1.06 | 1.16 | 1 | 1.05 | 1.03 | 0.867 | 1.05 | 0.981 | 0.574 | 0.49 | 0.654 | 0.615 |
| LK-2 | – | – | – | – | 0.223 | 0.232 | 0.211 | 0.22 | 0.733 | 0.559 | 0.662 | 0.583 | 1.55 | 1.14 | 1.06 | 1.06 | 0.511 | 0.6 | 0.632 | 0.645 |
| LOU-NH91 | 0.51 | 0.419 | 0.511 | 0.471 | 0.757 | 0.738 | 0.771 | 0.769 | 1 | 0.924 | 1.02 | 0.968 | 0.778 | 0.728 | 0.745 | 0.711 | 0.535 | 0.471 | 0.514 | 0.532 |
| NCI-H358 | – | – | – | – | 0.748 | 0.438 | 0.595 | 0.49 | 0.889 | 0.738 | 0.848 | 0.708 | 1.05 | 0.803 | 0.973 | 0.788 | 0.353 | 0.399 | 0.319 | 0.444 |
| NCI-H1395 | – | – | – | – | – | – | – | – | 1.12 | 1.4 | 1.19 | 0.99 | 0.993 | 1.01 | 1.1 | 1.04 | 0.596 | 0.536 | 0.761 | 0.551 |
| NCI-H1650 | 0.192 | 0.179 | 0.228 | 0.198 | 1.28 | 0.995 | 1.01 | 0.893 | – | – | – | – | – | – | – | – | 0.734 | 0.53 | 0.741 | 0.696 |
| NCI-H1793 | – | – | – | – | – | – | – | – | 0.849 | 0.82 | 0.853 | 0.707 | 0.689 | 0.706 | 0.77 | 0.691 | 0.295 | 0.214 | 0.344 | 0.31 |
| NCI-H1944 | – | – | – | – | 1.27 | 1.04 | 1.12 | 1.04 | 1.18 | 1.2 | 1.28 | 1.16 | 0.798 | 0.869 | 0.842 | 0.804 | 0.345 | 0.318 | 0.34 | 0.335 |
| NCI-H2170 | – | – | – | – | 1.38 | 1.17 | 1.27 | 1.17 | – | – | – | – | 0.806 | 0.793 | 0.74 | 0.736 | 0.341 | 0.309 | 0.332 | 0.331 |
| SK-MES-1 | – | – | – | – | 1.03 | 0.867 | 1.01 | 0.924 | 1.07 | 1.04 | 1.1 | 1.06 | 0.938 | 0.851 | 0.863 | 0.896 | 0.348 | 0.408 | 0.389 | 0.349 |
